Assay results taken from patent publication US20100041897A1, “Process for preparing a crystalline form of candesartan cilexetil” (CHEMO IBERICA, S.A., priority 2006, published 2010).
“Also recorded” adds a separate entry of the source. One block for each compound: values may come before it.

Columns and labels:
[1] = Accelerated stability test at 80° C., impurities determined by HPLC; format: physicochemical; details: for stability in accelerated stability test (in words): 80° C.
Procedure: In order to determine the influence of Form II on the stability of candesartan cilexetil Form I, samples with different proportions of Form II were prepared and subjected to an accelerated stability test at a temperature of 80° C. for different periods of time up to 9 days. Once the time period elapsed, the samples were analyzed by HPLC for the determination of the content of impurities, according to the method described in the Examples. Samples of candesartan cilexetil Form I containing different proportions of Form II were prepared from the products obtained in Example 2 and Preparative Example 1. The samples were exposed to an accelerated stability test at a temperature of 80° C. for different time periods up to 9 days. Once the time period has elapsed, the samples were analyzed by HPLC for the determination of the content of impurities. Impurities corresponding to the following retention times: 8.3, 10.4, 12.5, 14.1 and 16.4 minutes were identified in the HPLC chromatograms. The HPLC analysis of impurities was carried out in a HPLC system with UV detector (Waters Alliance), with a L1-type column according to US Pharmacopeia nomenclature, at a temperature of 30° C., with a flow rate of 1 ml/min, an injection volume of 10 μl, and an UV detector at 210 nm. The mobile phase was constituted by a mixture of solution A (v/v) (aqueous 0.1% v/v trifluoroacetic acid buffer) and acetonitrile. During the analysis the mobile phase contained 45% of Solution A and 55% of acetonitrile, except for the period comprised from minute 15 to minute 25 wherein a mixture of 5% Solution A and 95% acetonitrile was used. The sample was prepared dissolving 0.2 mg of the sample in 1 ml of mobile phase. The sum of the impurities refers to the sum of areas recorded in the HPLC chromatogram corresponding to the degradation impurities detected at the retention times above specified.

[2] = as above; format: physicochemical; details: product of crystallization assay from acetone/water 3:1 v/v, 80° C. for 5 to 9 days
[3] = solid sample kept at 80° C. for 7 days
[4] = solid sample kept at 80° C. for 9 days

Structure (SMILES): CCOc1nc2cccc(C(=O)OC(C)OC(=O)OC3CCCCC3)c2n1Cc1ccc(-c2ccccc2-c2nnn[nH]2)cc1 (centres unmarked) [Form I + 0.5% of Form II, candesartan cilexetil]
Sum of impurities (% HPLC area) [1, 3]: 1.46 % HPLC area

Structure (SMILES): CCOc1nc2cccc(C(=O)OC(C)OC(=O)OC3CCCCC3)c2n1Cc1ccc(-c2ccccc2-c2nnn[nH]2)cc1 (centres unmarked) [Comparative Example 2, candesartan cilexetil]
stability in accelerated stability test (in words) [1]: deficient stability

Structure (SMILES): CCOc1nc2cccc(C(=O)OC(C)OC(=O)OC3CCCCC3)c2n1Cc1ccc(-c2ccccc2-c2nnn[nH]2)cc1 (centres unmarked) [Form I + 5.0% of Form II, candesartan cilexetil]
Sum of impurities (% HPLC area) [1, 3]: 6.65 % HPLC area

Structure (SMILES): CCOc1nc2cccc(C(=O)OC(C)OC(=O)OC3CCCCC3)c2n1Cc1ccc(-c2ccccc2-c2nnn[nH]2)cc1 (centres unmarked) [Form II (Preparative Example 1), 2-ethoxy-1-[[2′-(1H-tetrazol-5-yl)[1,1′-biphenyl]-4-yl]methyl]-1H-benzimidazole-7-carboxylic acid, 1-[[(cyclohexyloxy)carbonyl]oxy]ethyl ester, reference compound]
content of impurities ([1]; 80° C. for 5 days, calculated from the areas of the HPLC chromatogram): 60 % (w/w)
stability in accelerated stability test (in words) ([1]; listed as Form II): unstable; also recorded: high instability
Sum of impurities (% HPLC area) ([1]; solid sample kept at 80° C. for 5 days): 59.98 % HPLC area

Structure (SMILES): CCOc1nc2cccc(C(=O)OC(C)OC(=O)OC3CCCCC3)c2n1Cc1ccc(-c2ccccc2-c2nnn[nH]2)cc1 (centres unmarked) [Assay 3, candesartan cilexetil]
Stability ([2]; listed as 3): Poor

Structure (SMILES): CCOc1nc2cccc(C(=O)OC(C)OC(=O)OC3CCCCC3)c2n1Cc1ccc(-c2ccccc2-c2nnn[nH]2)cc1 (centres unmarked) [Form I (Example 2), 2-ethoxy-1-[[2′-(1H-tetrazol-5-yl)[1,1′-biphenyl]-4-yl]methyl]-1H-benzimidazole-7-carboxylic acid, 1-[[(cyclohexyloxy)carbonyl]oxy]ethyl ester]
stability in accelerated stability test (in words) ([1]; listed as candesartan cilexetil Form I): good stability; also recorded: high stability
Sum of impurities (% HPLC area) [1, 3]: 0.34 % HPLC area

Structure (SMILES): CCOc1nc2cccc(C(=O)OC(C)OC(=O)OC3CCCCC3)c2n1Cc1ccc(-c2ccccc2-c2nnn[nH]2)cc1 (centres unmarked) [Assay 4, candesartan cilexetil]
Stability ([2]; listed as 4): Good

Further lines, results first:

Sum of impurities (% HPLC area) [1, 3]: 2.00 % HPLC area
Structure (SMILES): CCOc1nc2cccc(C(=O)OC(C)OC(=O)OC3CCCCC3)c2n1Cc1ccc(-c2ccccc2-c2nnn[nH]2)cc1 (centres unmarked) [Form I + 1.0% of Form II, candesartan cilexetil]

Sum of impurities (% HPLC area) [1, 4]: 1.21 % HPLC area
Structure (SMILES): CCOc1nc2cccc(C(=O)OC(C)OC(=O)OC3CCCCC3)c2n1Cc1ccc(-c2ccccc2-c2nnn[nH]2)cc1 (centres unmarked) [Form I + 0.3% of Form II, candesartan cilexetil]

Sum of impurities (% HPLC area) [1, 3]: 2.88 % HPLC area
Structure (SMILES): CCOc1nc2cccc(C(=O)OC(C)OC(=O)OC3CCCCC3)c2n1Cc1ccc(-c2ccccc2-c2nnn[nH]2)cc1 (centres unmarked) [Form I + 2.0% of Form II, candesartan cilexetil]

Sum of impurities (% HPLC area) [1, 4]: 0.96 % HPLC area
Structure (SMILES): CCOc1nc2cccc(C(=O)OC(C)OC(=O)OC3CCCCC3)c2n1Cc1ccc(-c2ccccc2-c2nnn[nH]2)cc1 (centres unmarked) [Form I + 0.1% of Form II, candesartan cilexetil]

Stability [2]: Poor
Structure (SMILES): CCOc1nc2cccc(C(=O)OC(C)OC(=O)OC3CCCCC3)c2n1Cc1ccc(-c2ccccc2-c2nnn[nH]2)cc1 (centres unmarked) [Example 1, candesartan cilexetil]

Sum of impurities (% HPLC area) [1, 3]: 23.20 % HPLC area
Structure (SMILES): CCOc1nc2cccc(C(=O)OC(C)OC(=O)OC3CCCCC3)c2n1Cc1ccc(-c2ccccc2-c2nnn[nH]2)cc1 (centres unmarked) [Form I + 20.0% of Form II, candesartan cilexetil]

Sum of impurities (% HPLC area) [1, 3]: 12.78 % HPLC area
Structure (SMILES): CCOc1nc2cccc(C(=O)OC(C)OC(=O)OC3CCCCC3)c2n1Cc1ccc(-c2ccccc2-c2nnn[nH]2)cc1 (centres unmarked) [Form I + 10.0% of Form II, candesartan cilexetil]
